We go through five molecules from patent US9802928B2 (Merck Sharp & Dohme Corp., priority 2013, dated 2017).

The target in assay [1] is purified human autoBACE-2 (Homo sapiens (Human), UniProt Q9Y5Z0). Description: BACE-2 Assay (BACE-HTRF assay). It is filed as biochemical. Particulars: Ki calculated from IC50 using the Cheng-Prusoff equation; QSY7-EISEVNLDAEFC-Eu-amide substrate, pH 5.0; read-out: BACE2 Ki. The method, then: Inhibitor IC50s at purified human autoBACE-2 are determined in a time-resolved endpoint proteolysis assay that measures hydrolysis of the QSY7-EISEVNLDAEFC-Eu-amide FRET peptide substrate (BACE-HTRF assay). BACE-mediated hydrolysis of this peptide results in an increase in relative fluorescence (RFU) at 620 nm after excitation with 320 nm light. Inhibitor compounds, prepared at 3× the desired final concentration in 1×BACE assay buffer (20 mM sodium acetate pH 5.0, 10% glycerol, 0.1% Brij-35) supplemented with 7.5% DMSO are pre-incubated with an equal volume of autoBACE-2 enzyme diluted in 1×BACE assay buffer (final enzyme concentration 1 nM) in black 384-well NUNC plates for 30 minutes at 30° C. The assay is initiated by addition of an equal volume of the QSY7-EISEVNLDAEFC-Eu-amide substrate (200 nM final concentration, Km=8 μM […] for autoBACE-2) prepared in 1×BACE assay buffer supplemented with 7.5% DMSO and incubated for 90 minutes at 30° C. DMSO is present at 5% final concentration in the assay. Following laser excitation of sample wells at 320 nm, the fluorescence signal at 620 nm is collected for 400 ms following a 50 μs delay on a RUBYstar HTRF plate reader (BMG Labtechnologies). Raw RFU data is normalized to maximum (1.0 nM BACE/DMSO) and minimum (no enzyme/DMSO) RFU values. IC50s are determined by nonlinear regression analysis (sigmoidal dose response, variable slope) of percent inhibition data with minimum and maximum values set to 0 and 100 percent respectively. Similar IC50s are obtained when using raw RFU data. The Ki values are calculated from the IC50 using the Cheng-Prusoff equation.
Chain of purified human autoBACE-2 (Q9Y5Z0 63-473 limits assumed): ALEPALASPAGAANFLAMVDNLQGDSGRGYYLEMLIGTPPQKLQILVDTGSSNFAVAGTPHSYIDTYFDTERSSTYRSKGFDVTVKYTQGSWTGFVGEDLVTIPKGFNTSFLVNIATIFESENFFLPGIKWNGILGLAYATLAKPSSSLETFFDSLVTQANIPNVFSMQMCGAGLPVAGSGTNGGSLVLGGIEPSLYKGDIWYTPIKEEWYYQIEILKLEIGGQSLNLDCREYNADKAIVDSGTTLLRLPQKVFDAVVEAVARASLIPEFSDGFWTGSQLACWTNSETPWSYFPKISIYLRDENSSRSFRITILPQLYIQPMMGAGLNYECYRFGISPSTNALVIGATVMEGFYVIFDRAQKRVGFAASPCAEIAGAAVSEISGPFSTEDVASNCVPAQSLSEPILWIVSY

Assay [2] deals with soluble human BACE1 catalytic domain (Homo sapiens (Human), UniProt P56817). Description: BACE1 HTRF FRET Assay. The conditions noted are these: Ki calculated from IC50 using the Cheng-Prusoff equation; QSY7-APPswe-Eu substrate, pH 5.0. In kind it is biochemical. From the text:
Na^+-Acetate pH 5.0; 1% Brij-35; Glycerol; Dimethyl Sulfoxide (DMSO); Recombinant human soluble BACE1 catalytic domain (>95% pure); APP Swedish mutant peptide substrate (QSY7-APP^swe-Eu): QSY7-[…]-Europium-amide.
A homogeneous time-resolved FRET assay can be used to determine IC50 values for inhibitors of the soluble human BACE1 catalytic domain. This assay monitors the increase of 620 nm fluorescence that resulted from BACE1 cleavage of an APPswedish APP^swe mutant peptide FRET substrate (QSY7-[…]-Europium-amide). This substrate contains an N-terminal QSY7 moiety that serves as a quencher of the C-terminal Europium fluorophore (620 nm Em). In the absence of enzyme activity, 620 nm fluorescence is low in the assay and increased linearly over 3 hours in the presence of uninhibited BACE1 enzyme Inhibition of BACE1 cleavage of the QSY7-APP^swe-Eu substrate by inhibitors is manifested as a suppression of 620 nm fluorescence.
Varying concentrations of inhibitors at 3× the final desired concentration in a volume of 10 ul are preincubated with purified human BACE1 catalytic domain (3 nM in 10 μl) for 30 minutes at 30° C. in reaction buffer containing 20 mM Na-Acetate pH 5.0, 10% glycerol, 0.1% Brij-35 and 7.5% DSMO. Reactions are initiated by addition of 10 μl of 600 nM QSY7-APP^swe-Eu substrate (200 nM final) to give a final reaction volume of 30 μl in a 384 well Nunc HTRF plate. The reactions are incubated at 30° C. for 1.5 hours. The 620 nm fluorescence is then read on a Rubystar HTRF plate reader (BMG Labtechnologies) using a 50 millisecond delay followed by a 400 millisecond acquisition time window. Inhibitor IC50 values are derived from non-linear regression analysis of concentration response curves. Ki values are then calculated from IC50 values using the Cheng-Prusoff equation using a previously determined […] of 8 μM for the QSY7-APP^swe-Eu substrate at BACE1.

Chain of soluble human BACE1 catalytic domain (P56817 75-416): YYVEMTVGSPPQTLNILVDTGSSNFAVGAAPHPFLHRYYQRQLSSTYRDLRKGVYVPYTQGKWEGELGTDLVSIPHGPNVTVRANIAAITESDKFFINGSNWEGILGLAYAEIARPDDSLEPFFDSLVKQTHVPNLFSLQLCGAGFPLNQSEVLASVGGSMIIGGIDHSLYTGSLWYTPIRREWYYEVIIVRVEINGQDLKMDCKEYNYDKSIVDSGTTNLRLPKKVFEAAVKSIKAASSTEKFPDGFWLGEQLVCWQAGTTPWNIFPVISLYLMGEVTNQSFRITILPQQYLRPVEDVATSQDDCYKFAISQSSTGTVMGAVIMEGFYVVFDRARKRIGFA

As to `CN1C(=N)N[C@](C)(c2cc(NC(=O)c3cnc(OCCF)cn3)ccc2F)C2(CC2)S1(=O)=O` [Example 1t, 5-(2-fluoroethoxy)-N-{4-fluoro-3-[(8R)-6-imino-5,8-dimethyl-4,4-dioxido-4-thia-5,7-diazaspiro[2.5]oct-8-yl]phenyl}pyrazine-2-carboxamide], the Ki – broadly, the dissociation constant of the complex between target and ligand, obtained from inhibition or displacement – in assay [1] is 285 nM; in assay [2] it was 42 nM.

`Cc1nc(C(=O)Nc2ccc(F)c([C@@]3(C)NC(=N)N(C)S(=O)(=O)C34CC4)c2)c(C)o1` [Example 1u, N-{4-fluoro-3-[(8R)-6-imino-5,8-dimethyl-4,4-dioxido-4-thia-5,7-diazaspiro[2.5]oct-8-yl]phenyl}-2,5-dimethyl-1,3-oxazole-4-carboxamide]: the Ki in assay [1] is 8 nM; in assay [2], 25 nM.

In the case of `CN1C(=N)N[C@](C)(c2cc(NC(=O)c3cn4ccsc4n3)ccc2F)C2(CC2)S1(=O)=O` [Example 1v, N-{4-fluoro-3-[(8R)-6-imino-5,8-dimethyl-4,4-dioxido-4-thia-5,7-diazaspiro[2.5]oct-8-yl]phenyl}imidazo[2,1-b][1,3]thiazole-6-carboxamide], the values for the Ki in assay [1] and in assay [2] were 63 nM and 232 nM, respectively.

Regarding `CN1C(=N)N[C@](C)(c2cc(NC(=O)c3cnc(OCC(F)(F)F)cn3)ccc2F)C2(CC2)S1(=O)=O` [Example 1w, N-{4-fluoro-3-[(8R)-6-imino-5,8-dimethyl-4,4-dioxido-4-thia-5,7-diazaspiro[2.5]oct-8-yl]phenyl}-5-(2,2,2-trifluoroethoxy)pyrazine-2-carboxamide], the Ki in assay [1] was 159 nM; in assay [2] it was 6 nM.

As for `CN1C(=N)N[C@](C)(c2cc(NC(=O)c3ccc(Cl)cn3)ccc2F)C2(CC2)S1(=O)=O` [Example 2, 5-chloro-N-{4-fluoro-3-[(8R)-6-imino-5,8-dimethyl-4,4-dioxido-4-thia-5,7-diazaspiro[2.5]oct-8-yl]phenyl}pyridine-2-carboxamide], the results for the Ki in assay [1] and in assay [2] were 2 nM and 5 nM, respectively.
